Data from US9708337B2, “Aryl amide-based kinase inhibitors” (Bristol-Myers Squibb Company, priority 2013, dated 2017).

Molecular target: AAK1 (GST-Xa-hAAK1) (Homo sapiens (Human), UniProt Q2M2I8)
Assay: AAK1 Kinase Assay
Assay type: biochemical
Conditions: not given
Method: The assays were performed in U-bottom 384-well plates. […] The reactions were initiated by the combination of bacterially expressed, GST-Xa-hAAK1 with substrates and test compounds. The reactions were incubated at room temperature for 3 hours and terminated by adding 60 μl of 35 mM EDTA buffer to each sample. […] Compounds were dissolved at 10 mM in dimethylsulfoxide (DMSO) and evaluated at eleven concentrations. IC50 values were derived by non-linear regression analysis.

AAK1 (GST-Xa-hAAK1), sequence (Q2M2I8 whole entry): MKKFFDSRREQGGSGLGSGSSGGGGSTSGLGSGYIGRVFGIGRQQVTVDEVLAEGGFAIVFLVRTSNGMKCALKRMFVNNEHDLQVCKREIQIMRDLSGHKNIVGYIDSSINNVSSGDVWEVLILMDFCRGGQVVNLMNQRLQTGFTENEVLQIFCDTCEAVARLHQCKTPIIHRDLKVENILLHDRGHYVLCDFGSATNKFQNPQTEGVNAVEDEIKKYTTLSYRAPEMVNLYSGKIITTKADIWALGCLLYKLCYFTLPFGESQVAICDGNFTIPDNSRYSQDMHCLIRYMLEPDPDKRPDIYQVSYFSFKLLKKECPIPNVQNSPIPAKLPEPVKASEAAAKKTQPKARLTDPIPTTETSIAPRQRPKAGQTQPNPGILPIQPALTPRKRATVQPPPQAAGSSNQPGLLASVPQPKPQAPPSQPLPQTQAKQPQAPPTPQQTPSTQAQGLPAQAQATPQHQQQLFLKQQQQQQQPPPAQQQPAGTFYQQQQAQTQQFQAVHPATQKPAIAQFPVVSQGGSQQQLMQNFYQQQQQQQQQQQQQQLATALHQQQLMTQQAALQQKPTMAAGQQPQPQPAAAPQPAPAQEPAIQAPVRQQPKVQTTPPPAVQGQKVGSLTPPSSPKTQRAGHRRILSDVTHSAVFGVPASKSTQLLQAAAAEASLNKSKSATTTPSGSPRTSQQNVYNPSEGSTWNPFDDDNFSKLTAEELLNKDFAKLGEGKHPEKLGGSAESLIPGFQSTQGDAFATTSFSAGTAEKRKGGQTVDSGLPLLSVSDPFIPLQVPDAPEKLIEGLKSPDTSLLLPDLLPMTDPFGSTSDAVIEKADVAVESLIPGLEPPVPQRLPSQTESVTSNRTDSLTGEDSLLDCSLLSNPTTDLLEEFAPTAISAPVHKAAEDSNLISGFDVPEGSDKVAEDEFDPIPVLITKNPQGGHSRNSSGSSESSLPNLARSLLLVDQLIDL

SMILES	IC50
CCCCC(=O)Nc1cc2c(cc1Br)-c1ccncc1CO2 [Example 34, N-(9-bromo-5H-chromeno[3,4-c]pyridin-8-yl)pentanamide]	10 to 100 nM
O=C(CCO)Nc1ccc2c(c1)OCc1cnccc1-2 [Example 19, N-(5H-chromeno[3,4-c]pyridin-8-yl)-3-hydroxypropanamide]	100 to 1200 nM
CC(C)(C)C(=O)Nc1ccc2c(c1)OCc1cnccc1-2 [Example 32, N-(5H-chromeno[3,4-c]pyridin-8-yl)pivalamide]	100 to 1200 nM
C#CCCC(=O)Nc1ccc2c(c1)OCc1cnccc1-2 [Example 14, N-(5H-chromeno[3,4-c]pyridin-8-yl)pent-4-ynamide]	10 to 100 nM
O=C(Nc1ccc2c(c1)OCc1cnccc1-2)NC1CCCCC1 [Example 13, 1-(5H-chromeno[3,4-c]pyridin-8-yl)-3-cyclohexylurea]	100 to 1200 nM
COCCC(=O)Nc1ccc2c(c1)OCc1cnccc1-2 [Example 18, N-(5H-chromeno[3,4-c]pyridin-8-yl)-3-methoxypropanamide]	100 to 1200 nM
CC(C)(C)COC(=O)Nc1ccc2c(c1)OCc1cnccc1-2 [Example 12, neopentyl 5H-chromeno[3,4-c]pyridin-8-ylcarbamate]	100 to 1200 nM
CCCC(=O)Nc1ccc2c(c1)OCc1cnccc1-2 [Example 31, N-(5H-chromeno[3,4-c]pyridin-8-yl)butyramide]	10 to 100 nM
N[C@H](CNc1ccc2c(c1)OCc1cnccc1-2)c1ccccc1 [Example 37, (S)—N^1-(5H-chromeno[3,4-c]pyridin-8-yl)-2-phenylethane-1,2-diamine]	10 to 100 nM
CC(C)C[C@H](N)C(=O)Nc1ccc2c(c1)OCc1cnccc1-2 [Example 2, (S)-2-amino-N-(5H-chromeno[3,4-c]pyridin-8-yl)-4-methylpentanamide]	1 to 10 nM
NS(=O)(=O)CCCC(=O)Nc1ccc2c(c1)OCc1cnccc1-2 [Example 21, N-(5H-chromeno[3,4-c]pyridin-8-yl)-4-sulfamoylbutanamide]	100 to 1200 nM
N#CC1(C(=O)Nc2ccc3c(c2)OCc2cnccc2-3)CC1 [Example 20, N-(5H-chromeno[3,4-c]pyridin-8-yl)-1-cyanocyclopropanecarboxamide]	100 to 1200 nM
CC(=O)Nc1ccc2c(c1)OCc1cnccc1-2 [Example 17, N-(5H-chromeno[3,4-c]pyridin-8-yl)acetamide]	100 to 1200 nM
COC(=O)CCC(=O)Nc1ccc2c(c1)OCc1cnccc1-2 [Example 29, methyl 4-((5H-chromeno[3,4-c]pyridin-8-yl)amino)-4-oxobutanoate]	100 to 1200 nM
CC(C)C(=O)Nc1ccc2c(c1)OCc1cnccc1-2 [Example 24, N-(5H-chromeno[3,4-c]pyridin-8-yl)isobutyramide]	100 to 1200 nM
CC(C)(C)CC(=O)Nc1ccc2c(c1)OCc1cnccc1-2 [Example 26, N-(5H-chromeno[3,4-c]pyridin-8-yl)-3,3-dimethylbutanamide]	10 to 100 nM
CC(C)CC(=O)Nc1ccc2c(c1)OCc1cnccc1-2 [Example 27, N-(5H-chromeno[3,4-c]pyridin-8-yl)-3-methylbutanamide]	10 to 100 nM
CCC(=O)Nc1ccc2c(c1)OCc1cnccc1-2 [Example 28, N-(5H-chromeno[3,4-c]pyridin-8-yl)propionamide]	100 to 1200 nM
CC(C)C[C@@H](N)C(=O)Nc1ccc2c(c1)OCc1cnccc1-2 [Example 1, (R)-2-amino-N-(5H-chromeno[3,4-c]pyridin-8-yl)-4-methylpentanamide]	1 to 10 nM
N#CCC(=O)Nc1ccc2c(c1)OCc1cnccc1-2 [Example 25, N-(5H-chromeno[3,4-c]pyridin-8-yl)-2-cyanoacetamide]	100 to 1200 nM
O=C(Nc1ccc2c(c1)OCc1cnccc1-2)C1CCCCC1 [Example 23, N-(5H-chromeno[3,4-c]pyridin-8-yl)cyclohexanecarboxamide]	100 to 1200 nM
CC(C)C[C@@H](N)C(=O)Nc1ccc2c(c1)OC(C)(C)c1cnccc1-2 [Example 8, (R)-2-amino-N-(5,5-dimethyl-5H-chromeno[3,4-c]pyridin-8-yl)-4-methylpentanamide]	10 to 100 nM

Same assay, conditions: Table 1a, listed as IC50 ranges; ATP 22 μM; read-out: AAK1 IC50

IC50	SMILES
100 to 1200 nM	CC(C)C[C@H](N)C(=O)Nc1ccc2c(c1)oc(=O)c1cnccc12 [Example 11, (S)-2-amino-4-methyl-N-(5-oxo-5H-chromeno[3,4-c]pyridin-8-yl)pentanamide]
100 to 1200 nM	N#CCCC(=O)Nc1ccc2c(c1)OCc1cnccc1-2 [Example 16, N-(5H-chromeno[3,4-c]pyridin-8-yl)-3-cyanopropanamide]
100 to 1200 nM	CN(C)CC(=O)Nc1ccc2c(c1)OCc1cnccc1-2 [Example 33, N-(5H-chromeno[3,4-c]pyridin-8-yl)-2-(dimethylamino)acetamide]
10 to 100 nM	CC(C)CCC(=O)Nc1ccc2c(c1)OCc1cnccc1-2 [Example 30, N-(5H-chromeno[3,4-c]pyridin-8-yl)-4-methylpentanamide]
10 to 100 nM	CC(=O)Nc1cc2c(cn1)COc1cc(NC(=O)[C@@H](N)CC(C)C)ccc1-2 [Example 35, (S)—N-(2-acetamido-5H-chromeno[3,4-c]pyridin-8-yl)-2-amino-4-methylpentanamide]

Same assay, conditions: Table 1a, numeric values; ATP 22 μM; read-out: AAK1 IC50

SMILES	IC50
CC(C)C[C@H](N)C(=O)Nc1ccc2c(c1)OC(C)(C)c1cnccc1-2 [Example 9, (S)-2-amino-N-(5,5-dimethyl-5H-chromeno[3,4-c]pyridin-8-yl)-4-methylpentanamide]	129 nM
O=C(CCN1CCCC1=O)Nc1ccc2c(c1)OCc1cnccc1-2 [Example 22, N-(5H-chromeno[3,4-c]pyridin-8-yl)-3-(2-oxopyrrolidin-1-yl)propanamide]	1200 nM
CCCCC(=O)Nc1ccc2c(c1)OCc1cnccc1-2 [Example 15, N-(5H-chromeno[3,4-c]pyridin-8-yl)pentanamide]	26 nM
N[C@H](C(=O)Nc1ccc2c(c1)OCc1cnccc1-2)c1ccccc1 [Example 36, (S)-2-amino-N-(5H-chromeno[3,4-c]pyridin-8-yl)-2-phenylacetamide]	8.9 nM
CC(C)C1CCCNC1C(=O)Nc1ccc2c(c1)OCc1cnccc1-2 (centres unmarked) [Example 10, N-(5H-chromeno[3,4-c]pyridin-8-yl)-3-isopropylpiperidine-2-carboxamide]	1.3 nM
